Results taken from patent EP0260829A2 (priority 1986, dated 1988).
pIC50: −log10 of the molar value.

Test system: anti-PCP antibody from ATCC HB 9198
Type: binding, rat
Conditions: for pIC50: read-out: Molar IC50

Row | SMILES | Percent Cross Reactivity With PCP | pIC50 | reaction with the antipentachlorophenol antibody
1 | Oc1ccc(Cl)c(Cl)c1Cl [2,3,4-Trichlorophenol] | 0.5% |  | 
2 | Oc1c(Cl)c(Cl)cc(Cl)c1Cl [2,3,5,6-Tetrachlorophenol] | 42% |  | 
3 | Oc1cc(Cl)cc(Cl)c1Cl [2,3,5-Trichlorophenol] | 0.5% |  | 
4 | Oc1c(Cl)ccc(Cl)c1Cl [2,3,6-Trichlorophenol] | 8.8% |  | 
5 | Oc1cccc(Cl)c1Cl [2,3-Dichlorophenol] | 0% | < 3.00 | 
6 | Oc1ccc(Cl)cc1Cl [2,4-Dichlorophenol] | 0% | < 3.00 | 
7 | Oc1cc(Cl)ccc1Cl [2,5-Dichlorophenol] | 0% | < 3.00 | 
8 | Oc1c(Cl)cccc1Cl [2,6-Dichlorophenol] | 1.8% |  | 
9 | Oc1ccc(Cl)c(Cl)c1 [3,4-Dichlorophenol] | 0% | < 3.00 | 
10 | Oc1cc(Cl)cc(Cl)c1 [3,5-Dichlorophenol] | 0% | < 3.00 | 
11 | Oc1ccc(Cl)cc1 [4-Chlorophenol] | 0% | < 3.00 | 
12 | Clc1cc(Cl)c(Cl)c(Cl)c1Cl [Pentachlorobenzene] | 0% | < 3.00 | fails to react
13 | Oc1ccccc1 [Phenol] | 0% | < 3.00 | 
14 | Oc1c(Cl)c(Cl)c(O)c(Cl)c1Cl [Tetrachlorohydroquinone] | 0.8% |  | 
